How the values were obtained:
Assay type in all cases: cell-based
DDR1 = DDR1 (Homo sapiens, UniProt Q08345); experiment: Degradation of DDR1 in tumor cell MKN45 (Western blot); design: The degradation activity of the compounds against DDR1 in the MKN45 cell line; endogenous in cells; host or cells: MKN45; settings: MKN-45, maximum degradation percentage, MKN45 cells, 24 hours
Experimental: Western blot experiment: Take gastric cancer cells (MKN45) and inoculate them into a 6-well plate at a concentration of […], adding 2 ml to each well and incubating for 24 hours.
The next day, observe the cells under a microscope to confirm their status. Prepare compounds, weigh a certain amount of the series compounds or reference drug cabozantinib from this patent, first prepare a high concentration mother liquor with pure DMSO, and use gradient dilution method to prepare compound concentrations of 2 mM, 200 μM, 100 μM, 20 μM, 2 μM, 200 nM, and 0 nM. The final concentration of DMSO is 0.5%. Shake to thoroughly mix. Add 10 μl of solution to each well. After incubation for 24 hours, remove the cells and use a pipette to aspirate the suspended cells into a 1.5 ml centrifuge tube. Centrifuge at 5000 rpm for 10 minutes to precipitate the cells. Carefully remove the cell precipitate from the culture medium, add 1 ml of PBS and shake slightly. After repeated cleaning for 3 times, dry the residue. Add 150 μl of RIPA lysate pre mixed with 1% PMSF, blow to allow the lysate to fully contact the cells, and incubate on ice for 10 minutes. Centrifuge at 12000 rpm for 10 minutes, extract the supernatant, use the BCA protein quantification kit to determine and homogenize the sample loading.
Mix BCA-A in a 50:1 ratio Prepare working solution with B solution, dilute the sample by 5 times, then pipette 20 μl onto a 96 well ELISA plate. Add 200 μl of pre mixed BCA working solution and incubate at 37° C. for 20 minutes. Measure the A562 nm absorbance value using an ELISA reader and substitute it into the protein standard curve formula to obtain the sample concentration. After calculating the required volume for loading […] of sample, divide the sample into 1.5 ml centrifuge tubes. Add 10 μl of sample buffer to each tube and mix well. Heat in a 95° C. metal bath for 5 minutes to denature the protein.
Take 4-20% gradient pre adhesive and fix it on the adhesive rack. Add electrophoresis solution to the slot and remove the comb, Marker and protein samples were loaded, and after 30 minutes of electrophoresis at 80V, the voltage was adjusted to 120V for electrophoresis, The marker band stops electrophoresis at the forefront of the gel. Take out the adhesive block and cut it to the appropriate size, The PVDF membrane was cut and activated in methanol, and after activation, the PVDF membrane was equilibrated in a membrane transfer equilibrium solution for 1 minute. Using sponge pads The sequence of PVDF film, adhesive, and sponge pad is placed in the splint and placed in the eBlot equipment for rapid wet rotation. Remove the membrane and seal it in 5% skim milk powder dissolved in 1×TBST for 1 hour. Cut the membrane according to the molecular weight of the target protein and internal reference protein, and place it in primary antibody diluted with 1×TBST. Shake overnight at 4° C.
The next day, transfer the band to 1×TBST for 3 washes, then add a specific dilution of the secondary antibody and shake it for 1.5 hours. Transfer the band again to 1×TBST for 3 washes, prepare ECL color solution, place the membrane in the imaging system, cover the surface with ECL color solution, and take photos of the membrane using the imaging system.
Using the SHST analysis system to analyze the results, measure the grayscale values of each band of the target protein and internal reference protein. Normalize the grayscale values of the target protein/corresponding lane GAPDH grayscale values, and perform quantitative analysis according to the protein amount=experimental group grayscale value/blank control group grayscale value.
The activity of the compound of the present invention in degrading DDR in tumor cell line MKN45 was measured. […]

SNU5 = experiment: Growth inhibition of gastric cancer cells SNU5 (CCK-8); settings: Homo sapiens, SNU-5, half inhibitory concentration, 72 hours
Experimental: (§1) Inoculate gastric cancer cells (SNU5 or MKN45) into a 96 well plate at a concentration of […], with 100 μl added to each well. Incubate for 30 minutes. Observe the cell status under a microscope. Prepare compounds, weigh a certain amount of the series compounds or reference drug cabozantinib of this patent, first prepare a high concentration mother liquor with pure DMSO, and use gradient dilution method to prepare a concentration of 200 μM, 60 μM, 20 μM, 6 μM, 2 μM, 600 nM, 200 nM, 0 nM drug solution, shake to make it fully mixed. The control group was prepared with cabozantinib using the same solvent and method.
(§2) After preparation, add 1 μl of drug solution to each well of the 96 well plate, and then add 100 μl of culture medium. Repeat each dose three times. Gently shake to allow the cells and medication to come into full contact and incubate in the incubator for 72 hours. 72 hours later, remove and color with CCK-8 reagent kit. Add 20 μl of CCK-8 reagent to each well, gently shake well, and incubate in the incubator for 1 hour. After 1 hour, remove and measure the absorbance of each well using an enzyme-linked immunosorbent assay (ELISA) reader at a wavelength of 450 nm.
(§3) According to the formula: Cell growth inhibition rate=[1−(absorbance of experimental group absorbance of culture medium control group)/(absorbance of blank control group−absorbance of culture medium control group)]×100%. It can be concluded that the compound has the ability to inhibit the growth of gastric cancer cells at the current dose and time.
(§4) Draw a graph based on the gradient of concentration and use GraphPad Prism 9 software (GraphPad Software, La Jolla, CA) to calculate the maximum inhibitory concentration (IC50) at 50%.
(§5) Referring to steps 1 and 2 of this embodiment, the inhibitory effect of the compound of the present invention on the growth of cancer cells and the degradation effect of target proteins were measured, and the following results were obtained (see Table 2 below).
(§6) The growth inhibitory effects of the compound of the present invention on tumor cell lines MKN45 and SNU5 were measured. The activity is expressed as half inhibitory concentration (C50). The results are shown in Table 2 below; When the half inhibitory concentration is less than or equal to 100 nM, the compound activity is labeled as “++++”; When the half inhibitory concentration is greater than 100 nM and less than 500 nM, the compound activity is labeled as […] and less than 1000 nM, the compound activity is labeled as “++”; When the half inhibitory concentration is greater than 1000 nM and less than 3000 nM, the compound activity is marked as “+”; When the half inhibitory concentration is greater than 3000 nM, the compound activity is marked as […]

MKN45 = experiment: Growth inhibition of gastric cancer cells MKN45 (CCK-8); settings: Homo sapiens, MKN-45, half inhibitory concentration, 72 hours
Experimental: as §1, §2, §3, §4, §5, §6

Chain of DDR1 (Q08345 19-913): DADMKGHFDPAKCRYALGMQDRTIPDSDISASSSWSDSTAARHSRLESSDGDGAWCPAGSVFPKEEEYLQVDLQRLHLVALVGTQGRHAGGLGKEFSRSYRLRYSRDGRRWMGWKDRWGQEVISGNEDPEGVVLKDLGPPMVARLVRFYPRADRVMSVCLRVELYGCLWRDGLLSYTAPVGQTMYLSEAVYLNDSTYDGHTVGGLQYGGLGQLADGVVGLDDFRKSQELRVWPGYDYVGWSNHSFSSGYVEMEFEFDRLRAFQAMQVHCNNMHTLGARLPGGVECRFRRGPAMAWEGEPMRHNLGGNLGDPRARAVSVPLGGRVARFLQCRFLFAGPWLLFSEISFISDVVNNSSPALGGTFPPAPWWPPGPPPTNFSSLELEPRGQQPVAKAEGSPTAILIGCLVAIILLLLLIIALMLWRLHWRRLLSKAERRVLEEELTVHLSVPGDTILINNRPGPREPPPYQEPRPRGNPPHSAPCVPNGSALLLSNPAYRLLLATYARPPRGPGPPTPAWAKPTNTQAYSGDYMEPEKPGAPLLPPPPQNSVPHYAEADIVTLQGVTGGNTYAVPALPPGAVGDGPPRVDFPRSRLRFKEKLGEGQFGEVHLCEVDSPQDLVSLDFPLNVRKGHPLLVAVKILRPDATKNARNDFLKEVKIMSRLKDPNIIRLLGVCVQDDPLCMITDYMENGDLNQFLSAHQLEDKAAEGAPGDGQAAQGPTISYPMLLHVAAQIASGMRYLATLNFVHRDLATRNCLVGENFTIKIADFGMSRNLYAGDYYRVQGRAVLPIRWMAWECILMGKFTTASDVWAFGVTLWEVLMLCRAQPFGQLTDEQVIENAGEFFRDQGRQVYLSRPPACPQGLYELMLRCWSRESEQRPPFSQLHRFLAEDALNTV

SMILES | Dmax (DDR1) [%] | IC50 (SNU5) [nM] | IC50 (MKN45) [nM]
COc1cc2c(Oc3ccc(NC(=O)C4(C(=O)Nc5ccc(F)cc5)CC4)cc3)ccnc2cc1N1CCC(C(=O)N2CCC(C(=O)N[C@H](C(=O)N3C[C@H](O)C[C@H]3C(=O)NCc3ccc(-c4scnc4C)cc3)C(C)(C)C)CC2)CC1 [TPD5436] | 65 to 75 | 100 to 500 | 100 to 500
COc1cc2c(Oc3ccc(NC(=O)C4(C(=O)Nc5ccc(F)cc5)CC4)cc3)ccnc2cc1N1CCC(C(=O)NCC(=O)N[C@H](C(=O)N2C[C@H](O)C[C@H]2C(=O)NCc2ccc(-c3scnc3C)cc2)C(C)(C)C)CC1 [TPD5452] | 65 to 75 | 1000 to 3000 | 1000 to 3000
COc1cc2c(Oc3ccc(NC(=O)C4(C(=O)Nc5ccc(F)cc5)CC4)cc3)ccnc2cc1N1CCC(C(=O)NCCCCC(=O)N[C@H](C(=O)N2C[C@H](O)C[C@H]2C(=O)NCc2ccc(-c3scnc3C)cc2)C(C)(C)C)CC1 [TPD5453] | 75 to 85 | 500 to 1000 | 1000 to 3000
COc1cc2c(Oc3ccc(NC(=O)C4(C(=O)Nc5ccc(F)cc5)CC4)cc3)ccnc2cc1N1CCN(CCCC(=O)N[C@H](C(=O)N2C[C@H](O)C[C@H]2C(=O)NCc2ccc(-c3scnc3C)cc2)C(C)(C)C)CC1 [TPD5457] | 75 to 85 | ≤ 100 | ≤ 100
COc1cc2c(Oc3ccc(NC(=O)C4(C(=O)Nc5ccc(F)cc5)CC4)cc3)ccnc2cc1N1CCC(N2CCN(C(=O)CCCCC(=O)N[C@H](C(=O)N3C[C@H](O)C[C@H]3C(=O)NCc3ccc(-c4scnc4C)cc3)C(C)(C)C)CC2)CC1 [TPD5494] | > 85 | 100 to 500 | 1000 to 3000
COc1cc2c(Oc3ccc(NC(=O)C4(C(=O)Nc5ccc(F)cc5)CC4)cc3)ccnc2cc1N1CCC(N2CCN(C(=O)CCOCC(=O)N[C@H](C(=O)N3C[C@H](O)C[C@H]3C(=O)NCc3ccc(-c4scnc4C)cc3)C(C)(C)C)CC2)CC1 [TPD5495] | 75 to 85 | 100 to 500 | 100 to 500
COc1cc2c(Oc3ccc(NC(=O)C4(C(=O)Nc5ccc(F)cc5)CC4)cc3)ccnc2cc1-c1cnn(C2CCN(C(=O)CCCCC(=O)N[C@H](C(=O)N3C[C@H](O)C[C@H]3C(=O)NCc3ccc(-c4scnc4C)cc3)C(C)(C)C)CC2)c1 [TPD5505] | 75 to 85 | 500 to 1000 | 1000 to 3000
COc1cc2c(Oc3ccc(NC(=O)C4(C(=O)Nc5ccc(F)cc5)CC4)cc3)ccnc2cc1N1CCC(OCCC(=O)Nc2ccc3c(c2)C(=O)N(C2CCC(=O)NC2=O)C3=O)CC1 (stereo not drawn) [TPD5706] | 75 to 85 | 100 to 500 | 100 to 500
COc1cc2c(Oc3ccc(NC(=O)C4(C(=O)Nc5ccc(F)cc5)CC4)cc3)ccnc2cc1NC(=O)c1cnc(N2CCC(CN3CCN(c4ccc5c(c4)C(=O)N(C4CCC(=O)NC4=O)C5=O)CC3)CC2)nn1 (stereo not drawn) [TPD5714] | 65 to 75 | ≤ 100 | 100 to 500
COc1cc2c(Oc3ccc(NC(=O)C4(C(=O)Nc5ccc(F)cc5)CC4)cc3)ccnc2cc1NC(=O)CCN1CCC(CN2CCN(c3ccc4c(c3)C(=O)N(C3CCC(=O)NC3=O)C4=O)CC2)CC1 (stereo not drawn) [TPD5734] | 65 to 75 | 100 to 500 | 100 to 500
COc1cc2c(Oc3ccc(NC(=O)C4(C(=O)Nc5ccc(F)cc5)CC4)cc3)ccnc2cc1NC(=O)CN1CCC(CN2CCN(c3ccc4c(c3)C(=O)N(C3CCC(=O)NC3=O)C4=O)CC2)CC1 (stereo not drawn) [TPD5735] | 75 to 85 | 100 to 500 | 500 to 1000
COc1cc2c(Oc3ccc(NC(=O)C4(C(=O)Nc5ccc(F)cc5)CC4)cc3)ccnc2cc1NC(=O)CC1CCN(C(=O)CN2CCN(c3ccc4c(c3)C(=O)N(C3CCC(=O)NC3=O)C4=O)CC2)CC1 (stereo not drawn) [TPD5745] | 65 to 75 | 500 to 1000 | 500 to 1000
COc1cc2c(Oc3ccc(NC(=O)C4(C(=O)Nc5ccc(F)cc5)CC4)cc3)ccnc2cc1NC(=O)CN1CCN(CC2CCN(c3ccc4c(c3)C(=O)N(C3CCC(=O)NC3=O)C4=O)CC2)CC1 (stereo not drawn) [TPD5746] | 75 to 85 | 500 to 1000 | 100 to 500
COc1cc2c(Oc3ccc(NC(=O)C4(C(=O)Nc5ccc(F)cc5)CC4)cc3)ccnc2cc1NC(=O)CCCN1CCC(CN2CCN(c3ccc(NC4CCC(=O)NC4=O)cc3)CC2)CC1 (stereo not drawn) [TPD5752m] | > 85 | 100 to 500 | 100 to 500
COc1cc2c(Oc3ccc(NC(=O)C4(C(=O)Nc5ccc(F)cc5)CC4)cc3)ccnc2cc1NC(=O)CN1CCC(CN2CCN(c3ccc(N(C)C4CCC(=O)NC4=O)nc3F)CC2)CC1 (stereo not drawn) [TPD5760] | 65 to 75 | 100 to 500 | 100 to 500
COc1cc2c(Oc3ccc(NC(=O)C4(C(=O)Nc5ccc(F)cc5)CC4)cc3)ccnc2cc1NCC(=O)N1CCC(CN2CCN(c3ccc(N(C)C4CCC(=O)NC4=O)nc3F)CC2)CC1 (stereo not drawn) [TPD5773] | 65 to 75 | 100 to 500 | 500 to 1000
COc1cc2c(Oc3ccc(NC(=O)C4(C(=O)Nc5ccc(F)cc5)CC4)cc3)ccnc2cc1NCC(=O)N1CCC(CN2CCN(c3ccc(NC4CCC(=O)NC4=O)nc3F)CC2)CC1 (stereo not drawn) [TPD5774] | > 85 | 500 to 1000 | 100 to 500
COc1cc2c(Oc3ccc(NC(=O)C4(C(=O)Nc5ccc(F)cc5)CC4)cc3)ccnc2cc1N1CCC(CN2CCN(CC(=O)Nc3cccc4c3CN(C3CCC(=O)NC3=O)C4=O)CC2)CC1 (stereo not drawn) [TPD5901] | > 85 | ≤ 100 | ≤ 100
COc1cc2c(Oc3ccc(NC(=O)C4(C(=O)Nc5ccc(F)cc5)CC4)cc3)ccnc2cc1N1CCC(CN2CCC(N3CCN(c4cccc5c4CN(C4CCC(=O)NC4=O)C5=O)CC3)CC2)CC1 (stereo not drawn) [TPD5907] | > 85 | ≤ 100 | ≤ 100
COc1cc2c(Oc3ccc(NC(=O)C4(C(=O)Nc5ccc(F)cc5)CC4)cc3)ccnc2cc1N1CCC(CN2CCN(CCCc3cccc4c3CN(C3CCC(=O)NC3=O)C4=O)CC2)CC1 (stereo not drawn) [TPD5937] | 65 to 75 | ≤ 100 | ≤ 100

— patent publication US20240374738A1, “BIFUNCTIONAL COMPOUND CAPABLE OF DEGRADING RECEPTOR TYROSINE KINASE AND APPLICATION THEREOF” (TAIBIDI PHARMACEUTICAL TECHNOLOGY (SHIJIAZHUANG) CO., LTD., priority 2023, published 2024)
